The test system of assay [1] is DU-145. The assay can be described thus: The concentration levels of spermine (SP) evaluated in DU145 cells treated with the compound concentration of 10 uM on fifth day of treatment. It is filed as functional, cell-based. The note with it: Homo sapiens.
Another assay deals with HT-29. The assay can be described thus: Growth inhibitory activity was measured for human HT-29 tumor cell line. The class given is functional. The note with it: Homo sapiens, HT-29; read-out: ID50 (the source's name).
Another assay concerns U-251. The assay can be described thus: Growth inhibitory activity was measured for human U251MG NCI tumor cell line. It is filed as functional. The note with it: read-out: ID50 (the source's name).
Another assay deals with PC-3. In words: Growth inhibitory activity was measured for human PC-3 tumor cell line. The class given is functional. The conditions noted are these: Homo sapiens, PC-3; read-out: ID50 (the source's name).
Assay [2] has as its system DU-145. In words: The concentration levels of spermidine (SD) evaluated in DU145 cells treated with the compound concentration of 10 uM on fifth day of treatment. It is filed as functional, cell-based. The conditions noted are these: Homo sapiens.
The subject of assay [3] is DU-145. In words: The concentration levels of putrescine (PU) evaluated in DU145 cells treated with the compound concentration of 10 uM on third day of treatment. It is filed as functional, cell-based. The conditions noted are these: Homo sapiens.
For assay [4], the system named is DU-145. The assay can be described thus: The concentration levels of analogue evaluated in DU145 cells treated with the compound concentration of 10 uM on third day of treatment. It is filed as functional, cell-based. The conditions noted are these: Homo sapiens.
Assay [5] deals with DU-145. In words: The concentration levels of spermine (SP), evaluated in DU145 cells treated with the compound concentration of 10 uM on third day of treatment. The class given is functional, cell-based. The conditions noted are these: Homo sapiens.
The test system of the next assay is MCF7. In words: Growth inhibitory activity was measured for human MCF-7 tumor cell line. It is filed as functional. The note with it: read-out: ID50 (the source's name).
The subject of assay [6] is DU-145. The assay can be described thus: The concentration levels of analogue evaluated in DU145 cells treated with the compound concentration of 10 uM on fifth day of treatment. It is filed as functional, cell-based. The note with it: Homo sapiens.
In another assay the test system is A549. In words: Growth inhibitory activity was measured for human A549 tumor cell line. The note with it: Homo sapiens, A549; read-out: ID50 (the source's name). It is filed as functional.
In assay [7] the test system is DU-145. In words: The concentration levels of spermidine (SD), evaluated in DU145 cells treated with the compound concentration of 10 uM on third day of treatment. It is filed as functional, cell-based. The conditions noted are these: Homo sapiens.
For assay [8], the system named is DU-145. The assay can be described thus: The concentration levels of putrescine (PU) evaluated in DU145 cells treated with the compound concentration of 10 uM on fifth day of treatment. It is filed as functional, cell-based. The conditions noted are these: Homo sapiens.
Assay [9] has as its system DU-145. The assay can be described thus: The concentration levels of spermidine (SD) evaluated in DU145 cells treated with the compound concentration of 0.02 uM on third day of treatment. It is filed as functional, cell-based. The note with it: Homo sapiens.
In assay [10] the test system is DU-145. In words: The concentration levels of spermidine (SD) evaluated in DU145 cells treated with the compound concentration of 2 uM on third day of treatment. It is filed as functional, cell-based. The note with it: Homo sapiens.
The test system of assay [11] is DU-145. The assay can be described thus: The concentration levels of analogue evaluated in DU145 cells treated with the compound concentration of 2 uM on first day of treatment. The class given is functional, cell-based. The note with it: Homo sapiens.
Assay [12] relates to DU-145. In words: The concentration levels of putrescine (PU) evaluated in DU145 cells treated with the compound concentration of 2 uM on third day of treatment. It is filed as functional, cell-based. The conditions noted are these: Homo sapiens.
In assay [13] the test system is DU-145. The assay can be described thus: The concentration levels of analogue evaluated in DU145 cells treated with the compound concentration of 0.02 uM on first day of treatment. It is filed as functional, cell-based. The conditions noted are these: Homo sapiens.
In assay [14] the test system is DU-145. In words: The concentration levels of spermine (SP), evaluated in DU145 cells treated with the compound concentration of 0.02 uM on first day of treatment. The class given is functional, cell-based. The conditions noted are these: Homo sapiens.
Assay [15] deals with DU-145. The assay can be described thus: The concentration levels of spermine (SP), evaluated in DU145 cells treated with the compound concentration of 2 uM on first day of treatment. It is filed as functional, cell-based. The note with it: Homo sapiens.
Assay [16] has as its system DU-145. In words: The concentration levels of spermidine (SD), evaluated in DU145 cells treated with the compound concentration of 0.02 uM on first day of treatment. The class given is functional, cell-based. The conditions noted are these: Homo sapiens.
For assay [17], the system named is DU-145. In words: The concentration levels of analogue evaluated in DU145 cells treated with the compound concentration of 0.02 uM on third day of treatment. It is filed as functional, cell-based. The note with it: Homo sapiens.
Assay [18] concerns DU-145. The assay can be described thus: The concentration levels of putrescine (PU) evaluated in DU145 cells treated with the compound concentration of 0.02 uM on first day of treatment. The conditions noted are these: Homo sapiens. It is filed as functional, cell-based.
For assay [19], the system named is DU-145. In words: The concentration levels of spermidine (SD), evaluated in DU145 cells treated with the compound concentration of 2 uM on first day of treatment. It is filed as functional, cell-based. The note with it: Homo sapiens.
The test system of assay [20] is DU-145. In words: The concentration levels of spermine (SP) evaluated in DU145 cells treated with the compound concentration of 0.02 uM on third day of treatment. It is filed as functional, cell-based. The conditions noted are these: Homo sapiens.
In assay [21] the test system is DU-145. The assay can be described thus: The concentration levels of analogue evaluated in DU145 cells treated with the compound concentration of 2 uM on third day of treatment. The class given is functional, cell-based. The conditions noted are these: Homo sapiens.
Assay [22] relates to DU-145. In words: The concentration levels of spermine (SP) evaluated in DU145 cells treated with the compound concentration of 2 uM on third day of treatment. It is filed as functional, cell-based. The note with it: Homo sapiens.
For assay [23], the system named is DU-145. The assay can be described thus: The concentration levels of putrescine (PU) evaluated in DU145 cells treated with the compound concentration of 0.02 uM on third day of treatment. It is filed as functional, cell-based. The note with it: Homo sapiens.
The subject of assay [24] is DU-145. In words: The concentration levels of putrescine (PU) evaluated in DU145 cells treated with the compound concentration of 2 uM on first day of treatment. The conditions noted are these: Homo sapiens. It is filed as functional, cell-based.

SMILES strings stand for the structures.

With `CCNCCCNCc1ccccc1CNCCCNCC`, the Concentration (nM (10e6*cells)-1) in the assay with DU-145 [1] was 2.13; in the assay on DU-145 [2], 1.84; with DU-145 [3], 0.12; in the assay with DU-145 [4], 0.82; with DU-145 [5], 2.7; in the assay with DU-145 [6], 1.25. In addition, the Concentration (nM (10e6*cells)-1) in the assay with DU-145 [7] was found to be 1.5; in the assay on DU-145 [8] it was 0.06. Moreover, the IC50 with HT-29, in the assay with U-251, in the assay on PC-3, in the assay with MCF7 and in the assay with A549 was above 31.2 µM in each case.

`CCNCCCNCC1CC1CNCCCNCC` (stereo in doubt; 5): the Concentration (nM (10e6*cells)-1) in the assay on DU-145 [9] was determined as 1.41; in the assay on DU-145 [10] it was 1.38; in the assay on DU-145 [11], 0.33; with DU-145 [12], 0.05; in the assay on DU-145 [13], 0.14; in the assay with DU-145 [14], 2.48. The Concentration (nM (10e6*cells)-1) in the assay with DU-145 [15] worked out at 2.64; in the assay on DU-145 [16], 1.92; in the assay with DU-145 [17], 0.06; in the assay on DU-145 [18], 0.2; with DU-145 [19] it was 2.63; in the assay with DU-145 [20], 2.73. In addition, the Concentration (nM (10e6*cells)-1) in the assay on DU-145 [21] was determined as 0.18; with DU-145 [22] it was 2.28; with DU-145 [23], 0.08; in the assay on DU-145 [24], 0.55.

The record behind these values is ChEMBL document CHEMBL1131189, “Conformationally restricted analogues of 1N,12N-bisethylspermine: synthesis and growth inhibitory effects on human tumor cell lines” (1998).
